Measurements taken from patent publication US10457709B2, “Antimicrobial peptides, their variants and uses” (priority 2015, dated 2019).
Square brackets hold non-standard residues; d marks the D form. Ends that are not written are not given here. Peptide text beside a SMILES is read from it.

What was measured:
[1] = test system: MRSA strains (S. aureus COL); assay: MIC, synergistic activity with Ertapenem (4 μg/ml); type: cell-based, Staphylococcus aureus; conditions: S. aureus COL, synergistic activity with 4 μg/ml Ertapenem
Experimental: (§1) Minimum inhibition concentrations (MICs) were determined against Escherichia coli (ATCC 25922), Staphylococcus aureus (ATCC 25923), Klebsiella pneumoniae (ATCC 10031) and Pseudomonas aeruginosa (ATCC 27853). Also clinical strains of E. coli, K. pneumoniae, E. cloacae, P. aeruginosa, Serratia marcescens, Proteus mirabilis, S. pneumoniae, Acinetobacter baumannii, A. johnsonii and S. aureus were used for MICs assays. Additionally, clinical strains of yeast including Candida albicans, C. glabrata, C. parapsilosis and C. quillermondiae were used. The susceptibility of these microorganisms to Chain peptides were determined using micro broth dilution assay. Colonies of the respective microorganism from Muller Hinton (MH) agar plates incubated overnight were suspended in MH broth media and final concentration of microorganism was adjusted to 5.0×10^5 cfu/ml. An aliquot of 10 μl of each Chain peptide, or gentamicin, tetracycline as reference antibiotics were added in differing concentrations along with 90 μl of bacterial suspension to 96 well polypropylene plates and incubated at 37° C. for 20 to 24 hours. Concentrations of Chain peptides and reference antibiotics ranged from 0.125 to 128 μg/ml and the MICs were recorded as the lowest concentration with no visual growth of bacteria. Similarly, antifungal MICs were tested in Potato dextrose broth.
(§2) Peptides Chain 104, Chain 105, Chain 201, Chain 308, Chain 310 were tested against antibiotic-sensitive strains of S. aureus RN4220 and methicillin resistant strains of S. aureus COL (MRSA). Chain peptides comprising of either L- or D-form amino acids were tested against these bacteria, and the D-form peptides were found have better activity compared to L-form (Table 6). Synergistic activity of chain peptides along with Ertapenem (4 μg/ml) was tested to know whether it will influence the activity against MRSA strains. […] Chain 310 has the best antibacterial activity against the MRSA strains with a MIC of 0.06 & 0.03 μg/ml along with Ertapenem (4 μg/ml) for both forms of L and D-peptides (Table 6).

S. aureus RN4220 = type: cell-based, Staphylococcus aureus; conditions: antibiotic sensitive strain S. aureus RN4220
Experimental: as §1, §2

S. aureus COL (MRSA) = type: cell-based, Staphylococcus aureus
Experimental: as §1, §2

[2] = test system: Candida albicans clinical strains; assay: MIC, clinical yeast strains; type: cell-based; design: unit: μg/ml
Experimental: as §1
(§3) Clinical strains of yeasts including Candida albicans, C. glabrata, C. parapsilosis and C. quillermondiae were also tested with the 12 Chain peptides. The minimum inhibitory concentration (MICs) varied between these peptides and are presented in Tables 4a, 4b, 4c and 5a, 5b, 5c. Peptides Chain 105, 201 and 308 are broad spectrum antimicrobials with MICs between 0.5-32 μg/ml against all the bacteria and yeasts tested, except Serratia marcescens and Proteus mirabilis, against which the MICs were between 64-128 μg/ml. Peptide Chain 306 has narrow spectrum activity against E. coli at 1 μg/ml and for the rest of the bacterial strains at >32 μg/ml (FIG. 10c).

[3] = test system: C. glabrata clinical strains; assay: MIC, clinical yeast strains; type: cell-based, Candida glabrata; design: unit: µg/ml
Experimental: as §1, §3

[4] = test system: C. quillermondiae clinical strains; assay: MIC, clinical yeast strains; type: cell-based, Candida quillermondiae; design: unit: μg/ml; conditions: C. quillermondiae clinical yeast strain 1
Experimental: as §1, §3

[5] = test system: C. parapsilosis clinical strains; assay: MIC, clinical yeast strains; type: cell-based, Candida parapsilosis; design: unit: µg/ml
Experimental: as §1, §3

[6] = test system: Streptococcus pneumoniae clinical strains; type: cell-based; conditions: clinical strains
Experimental: as §1, §3

[7] = test system: Serratia marcescens clinical strains; type: cell-based; conditions: clinical strains
Experimental: as §1, §3

[8] = test system: Proteus mirabilis clinical strains; type: cell-based; conditions: clinical strains
Experimental: as §1, §3

[9] = test system: Enterobacter cloacae clinical strains; type: cell-based; conditions: clinical strains
Experimental: as §1, §3

[10] = test system: Staphylococcus aureus clinical strains; type: cell-based; conditions: clinical strains
Experimental: as §1, §3

[11] = test system: Escherichia coli clinical strains; type: cell-based; conditions: clinical strains
Experimental: as §1, §3

[12] = test system: Pseudomonas aeruginosa clinical strains; type: cell-based; conditions: clinical strains
Experimental: as §1, §3

[13] = test system: Klebsiella pneumoniae clinical strains; type: cell-based; conditions: clinical strains
Experimental: as §1, §3

[14] = Candida albicans clinical yeast strain 1
[15] = Candida albicans clinical yeast strain 2
[16] = Candida albicans clinical yeast strain 3
[17] = Candida albicans clinical yeast strain 4
[18] = Candida albicans clinical yeast strain 5
[19] = C. glabrata clinical yeast strain 1
[20] = C. glabrata clinical yeast strain 2
[21] = C. glabrata clinical yeast strain 3
[22] = C. glabrata clinical yeast strain 4
[23] = C. parapsilosis clinical yeast strain 1
[24] = C. parapsilosis clinical yeast strain 2
[25] = C. parapsilosis clinical yeast strain 3
[26] = C. parapsilosis clinical yeast strain 4

CC[C@@H](C)[C@@H](NC(=O)[C@@H](CCSC)NC(=O)[C@@H](C)NC(=O)[C@@H](CCCNC(=N)N)NC(=O)[C@@H](Cc1c[nH]c2ccccc12)NC(=O)[C@@H](CCCCN)NC(=O)[C@H](N)CCCNC(=N)N)C(=O)N[C@H](CCCNC(=N)N)C(=O)N[C@H](CC(C)C)C(=O)N[C@H](Cc1c[nH]cn1)C(=O)N[C@H](C)C(=O)N[C@H](CCCCN)C(=O)N[C@H](CCCNC(=N)N)C(=O)N[C@H](CC(C)C)C(=O)N[C@H](CCCNC(=N)N)C(=O)N[C@H](CCCCN)C(=O)O [104 D] (H-[dR][dK][dW][dR][dA][dM][dI][dR][dL][dH][dA][dK][dR][dL][dR][dK]-OH)
4 µg/mL: Minimum inhibitory concentration (MIC), S. aureus COL + 4 μg/ml Ertapenem [1]
32 µg/mL: Minimum inhibitory concentration (MIC), S. aureus COL (MRSA) (S. aureus COL (MRSA))
64 µg/mL: Minimum inhibitory concentration (MIC), S. aureus RN4220 (S. aureus RN4220)

CC(C)C[C@@H](NC(=O)[C@H](N)CCCNC(=N)N)C(=O)N[C@H](CCCCN)C(=O)N[C@H](Cc1c[nH]c2ccccc12)C(=O)N[C@H](Cc1ccccc1)C(=O)N[C@H](CC(C)C)C(=O)N[C@H](CC(C)C)C(=O)N[C@H](Cc1ccccc1)C(=O)N[C@H](CCCNC(=N)N)C(=O)N[C@H](CCCCN)C(=O)N[C@H](CCCNC(=N)N)C(=O)O [308 D] (H-[dR][dL][dK][dW][dF][dL][dL][dF][dR][dK][dR]-OH)
4 µg/mL: Minimum inhibitory concentration (MIC), S. aureus RN4220 (S. aureus RN4220) | Minimum inhibitory concentration (MIC), S. aureus COL (MRSA) (S. aureus COL (MRSA))
1 µg/mL: Minimum inhibitory concentration (MIC), S. aureus COL + 4 μg/ml Ertapenem [1]

RLKWFLLFRKR [Compound 308]
>64 µg/mL: Minimum inhibitory concentration (MIC), S. aureus RN4220 (S. aureus RN4220) | Minimum inhibitory concentration (MIC), S. aureus COL (MRSA) (S. aureus COL (MRSA))
0.5 µg/mL: Minimum inhibitory concentration (MIC), S. aureus COL + 4 μg/ml Ertapenem [1]

KRKWRWLFKKL [Compound 310]
0.06 µg/mL: Minimum inhibitory concentration (MIC), S. aureus COL + 4 μg/ml Ertapenem [1]
>64 µg/mL: Minimum inhibitory concentration (MIC), S. aureus RN4220 (S. aureus RN4220) | Minimum inhibitory concentration (MIC), S. aureus COL (MRSA) (S. aureus COL (MRSA))

RKWRAMIRLHAKWLRK [Compound 105]
>64 µg/mL: Minimum inhibitory concentration (MIC), S. aureus RN4220 (S. aureus RN4220) | Minimum inhibitory concentration (MIC), S. aureus COL (MRSA) (S. aureus COL (MRSA))
0.5 µg/mL: Minimum inhibitory concentration (MIC), S. aureus COL + 4 μg/ml Ertapenem [1]

CC[C@@H](C)[C@@H](NC(=O)[C@@H](CCSC)NC(=O)[C@@H](C)NC(=O)[C@@H](CCCNC(=N)N)NC(=O)[C@@H](Cc1c[nH]c2ccccc12)NC(=O)[C@@H](CCCCN)NC(=O)[C@H](N)CCCNC(=N)N)C(=O)N[C@H](CCCNC(=N)N)C(=O)N[C@H](CC(C)C)C(=O)N[C@H](Cc1c[nH]cn1)C(=O)N[C@H](C)C(=O)N[C@H](CCCCN)C(=O)N[C@H](Cc1c[nH]c2ccccc12)C(=O)N[C@H](CC(C)C)C(=O)N[C@H](CCCNC(=N)N)C(=O)N[C@H](CCCCN)C(=O)O [105 D] (H-[dR][dK][dW][dR][dA][dM][dI][dR][dL][dH][dA][dK][dW][dL][dR][dK]-OH)
2 µg/mL: Minimum inhibitory concentration (MIC), S. aureus COL + 4 μg/ml Ertapenem [1]
8 µg/mL: Minimum inhibitory concentration (MIC), S. aureus COL (MRSA) (S. aureus COL (MRSA))
16 µg/mL: Minimum inhibitory concentration (MIC), S. aureus RN4220 (S. aureus RN4220)

KWIVWRWRFKR [Compound 201]
0.5 µg/mL: Minimum inhibitory concentration (MIC), S. aureus COL + 4 μg/ml Ertapenem [1]
64 µg/mL: Minimum inhibitory concentration (MIC), S. aureus RN4220 (S. aureus RN4220) | Minimum inhibitory concentration (MIC), S. aureus COL (MRSA) (S. aureus COL (MRSA))

C[C@@H]1[C@H](O)[C@@H](C)/C=C/C=C/C=C/C=C/C=C/C=C/C=C/[C@H](O[C@@H]2O[C@H](C)[C@@H](O)[C@H](N)[C@@H]2O)C[C@@H]2O[C@](O)(C[C@@H](O)C[C@@H](O)[C@H](O)CC[C@@H](O)C[C@@H](O)CC(=O)O[C@H]1C)C[C@H](O)[C@H]2C(=O)O [Amphotericin B]
2: Minimum inhibitory concentration [2, 14] | Minimum inhibitory concentration [2, 16] | Minimum inhibitory concentration [2, 17] | Minimum inhibitory concentration [2, 18] | Minimum inhibitory concentration [3, 21] | Minimum inhibitory concentration [4] | Minimum inhibitory concentration [5, 23] | Minimum inhibitory concentration [5, 24] | Minimum inhibitory concentration [5, 25] | Minimum inhibitory concentration [5, 26]
4: Minimum inhibitory concentration [3, 19] | Minimum inhibitory concentration [3, 20] | Minimum inhibitory concentration [3, 22]
0.5: Minimum inhibitory concentration [2, 15]

CC(C)C[C@@H](NC(=O)[C@@H](CCCCN)NC(=O)[C@@H](Cc1c[nH]c2ccccc12)NC(=O)[C@@H](CCCCN)NC(=O)[C@@H](C)NC(=O)[C@@H](Cc1c[nH]cn1)NC(=O)[C@@H](CC(C)C)NC(=O)[C@@H](CCCNC(=N)N)NC(=O)[C@@H](Cc1c[nH]c2ccccc12)NC(=O)[C@H](N)Cc1c[nH]c2ccccc12)C(=O)N[C@H](Cc1c[nH]c2ccccc12)C(=O)O [Chain109D] (H-[dW][dW][dR][dL][dH][dA][dK][dW][dK][dL][dW]-OH)
16 µg/mL: MIC, Streptococcus pneumoniae strain 1 [6] | MIC, Escherichia coli strain 1 [11] | MIC, Pseudomonas aeruginosa strain 1 [12] | MIC, Pseudomonas aeruginosa strain 2 [12] | MIC, Pseudomonas aeruginosa strain 3 [12] | MIC, Pseudomonas aeruginosa strain 4 [12] | MIC, Klebsiella pneumoniae strain 1 [13] | MIC, Klebsiella pneumoniae strain 4 [13]
16: Minimum inhibitory concentration [3, 21]
8 µg/mL: MIC, Streptococcus pneumoniae strain 2 [6] | MIC, Streptococcus pneumoniae strain 4 [6] | MIC, Streptococcus pneumoniae strain 5 [6] | MIC, Enterobacter cloacae strain 2 [9] | MIC, Enterobacter cloacae strain 3 [9] | MIC, Enterobacter cloacae strain 4 [9] | MIC, Pseudomonas aeruginosa strain 5 [12] | MIC, Klebsiella pneumoniae strain 2 [13] | MIC, Klebsiella pneumoniae strain 3 [13] | MIC, Klebsiella pneumoniae strain 5 [13]
>128 µg/mL: MIC, Serratia marcescens strain 1 [7] | MIC, Serratia marcescens strain 2 [7] | MIC, Serratia marcescens strain 3 [7] | MIC, Serratia marcescens strain 4 [7] | MIC, Proteus mirabilis strain 1 [8] | MIC, Proteus mirabilis strain 4 [8] | MIC, Proteus mirabilis strain 5 [8]
128: Minimum inhibitory concentration [2, 14] | Minimum inhibitory concentration [2, 15] | Minimum inhibitory concentration [2, 16] | Minimum inhibitory concentration [2, 17] | Minimum inhibitory concentration [2, 18] | Minimum inhibitory concentration [3, 19] | Minimum inhibitory concentration [3, 20] | Minimum inhibitory concentration [4] | Minimum inhibitory concentration [5, 23] | Minimum inhibitory concentration [5, 24] | Minimum inhibitory concentration [5, 25]
64: Minimum inhibitory concentration [3, 22]
8: Minimum inhibitory concentration [5, 26]
2 µg/mL: MIC, Streptococcus pneumoniae strain 3 [6] | MIC, Staphylococcus aureus strain 1 [10] | MIC, Staphylococcus aureus strain 3 [10] | MIC, Staphylococcus aureus strain 4 [10] | MIC, Staphylococcus aureus strain 5 [10]
4 µg/mL: MIC, Enterobacter cloacae strain 1 [9] | MIC, Enterobacter cloacae strain 5 [9] | MIC, Staphylococcus aureus strain 2 [10] | MIC, Escherichia coli strain 2 [11] | MIC, Escherichia coli strain 3 [11] | MIC, Escherichia coli strain 4 [11] | MIC, Escherichia coli strain 5 [11]
64 µg/mL: MIC, Serratia marcescens strain 5 [7] | MIC, Proteus mirabilis strain 2 [8] | MIC, Proteus mirabilis strain 3 [8]
